In US9034960B2, “Antidrift composition” (Momentive Performance Materials Inc., priority 2012, dated 2015):

Key:
velvetleaf = assay: Herbicidal performance of glyphosate spray compositions sprayed on velvetleaf; type: in vivo; conditions: 1% glyphosate IPA salt
Method: Urea inclusion complexes containing PAM-PAA copolymer, sodium salt (PAM-PAA-Na) (Zetag 4100, BASF), both without and with Silicone A superspreader, were made from molten urea as was a comparison urea inclusion complex containing PAM and Silicone A. Aqueous herbicidal spray compositions were prepared containing 0.75% of these urea inclusion complexes and 1% glyphosate isopropylamine salt (“[…]”) herbicide and evaluated for reduction of drift, increased spreading and herbicidal performance when sprayed on velvetleaf.
A solution of 0.042% Silicone A and 1% glyphosate IPA salt (Example 26) was used as a control as was a plain 1% glyphosate IPA salt solution (Example 27).

[1] = Spreading/wetting: diameter of a 10 microliter drop on polystyrene dish; type: physicochemical; conditions: Table 3; aqueous herbicidal spray composition
Method: The spreading ability of the various superspreaders utilized herein was determined by depositing a single drop (10 microliters) of solution onto a clean, flat polystyrene dish. The polystyrene surfaces were cleaned by rinsing with isopropanol and then with deionized water. The dishes were then dried with dry nitrogen gas. The diameters of the resulting drops were then measured. Each solution was tested 2 to 4 times and the average diameter was calculated.

## CC(C)N.O=C(O)CNCP(=O)(O)O [Example 27, glyphosate isopropylamine salt]
velvetleaf; after 1 week
  % Control after 1 week: 25%
velvetleaf; after 2 weeks
  % Control after 2 weeks: 81%
[1]
  Drop Spread Diameter: 4.8 mm
